Experimental data reported in US20240299321A1, “METHODS TO SENSITIZE CANCER CELLS AND STANDARDIZED SCREENING ASSAY FOR IMMUNOTHERAPY” (THE TRUSTEES OF INDIANA UNIVERSITY, priority 2020, published 2024).

Key:
EO771 tumors = experiment: EO771 orthotopic breast tumor model in immunocompetent C57BL/6 mice; type: in vivo; conditions: 20 mg kg-1 intraperitoneal, 3 times/week for 2 weeks
Protocol: T cell effector function analysis: We measured cytokine and cytolytic granule production (IFNγ, GZMB and TNFα) of CD8+ T cells from mouse tumor samples and tumor organoid-T cell co-culture. Briefly, CD8+ T cells were placed into the 24-well plate at 1×10^6 cells/well, stimulated with 1 μM ionomycin and 50 ng ml-1 phorbol 12-myristate 13-acetate (PMA) (Sigma-Aldrich) for 4 h, in the presence of 5 μg ml-1 Brefeldin A (BFA), with the purpose to amplify the expression of intracellular cytokines61. The cells were stained with APC/Cy7-conjugated anti-CD8a (Biolegend) for 15 min and then fixed by 4% PFA. After washing, cells were stained with PerCP/Cy7-conjugated anti-GZMB, APC-conjugated anti-IFNγ and PE-conjugated anti-TNFα (Biolegend) for 15 min. In flow cytometric analyses, T cells stained with isotype control antibodies were used as negative controls for gating the cytokine or granule-producing cells. For T cells from tumor organoid-T cell co-culture, tumor organoids were first digested into single cells with TrypLE Express at 37° C. before APC/Cy7-conjugated anti-CD8a staining. In the IFNγ and TNFα secretion assay (Biolegend), T cells were stimulated with ionomycin and PMA without the presence of BFA. The media were collected for ELISA assay.
Immunohistochemistry (IHC) and Immunofluorescence (IF) analysis of tumor organoids: Tumor organoids were gently centrifuged at 100 rcf from organoid culture medium and then embedded in 2% agar. Tumor organoids were fixed in 4% paraformaldehyde solution for overnight at room temperature. The samples were replaced with 70% ethanol and later embedded in paraffin blocks. Paraffin sections were cut at 5 μm thickness, attached on slides, heated at 60° C. for 1 h and then overnight at 37° C. The slides were stained with hematoxylin and eosin (H&E). IHC staining follows the protocol described62. Mouse-specific antibodies for CD8α (Cell Signaling Technology, clone D4W2Z, 1:400 dilution), cleaved caspase3 (Cell Signaling Technology, clone D175, 1:400 dilution) and Ki67 (Cell Signaling Technology, clone D3B5, 1:400 dilution) were used for IHC staining. The DAB peroxidase substrate kit (Vector laboratories Inc.) was used to visualize the antibodies. For IF analysis, the sample slides were blocked 3% BSA for 40 min after hydration. The slides were stained with primary antibodies including EpCAM (Abcam, 1:400 dilution), FITC-conjugated anti-α-SMA (Genetex, 1:400 dilution) and AF594-conjugated anti-CD31 (Biolegend) for 1 h. For EpCAM staining, the slide was further stained with secondary antibody Alexa Fluor 647-conjugated anti-rabbit IgG (Biolegend, 1:200) for 40 min. The fluorescence images were captured under a Leica DM4B microscope.
Animal studies: All animal experiments were performed in accordance with the National Institutes of Health's Animal Use Guidelines and protocols approved by the Animal Care and Use Committee of Indiana University School of Medicine. To examine the tumorigenic potential of tumor organoids, tumor organoids with different sizes (diameter of 30-70, 70-150, and 150-500 μm) were orthotopically injected into fat pad of the 4th mammary gland in female C57BL/6 mice. Each mouse was injected with a total of 2×10^5 tumor cells. 5 mice were used in each group. Tumors were measured in two dimensions using a manual caliper. Tumor volume was calculated using the following formula: V=0.5×length×width×width. Tumor volume was measured every 3 days. Tumors were harvested 22 days after injection. The tumor growth, volume and weight were analyzed. To evaluate the anti-tumor effect of drugs in immunocompetent C57BL/6 mice and immunodeficient nude (NU/J) mice, 2×10^5 EO771 cells were orthotopically injected into fat pad of the 4th mammary gland in female mice. […]

[1] = test system: EO771 (Luc+OVA+) tumor organoids; experiment: Intra-tumor infiltration of T cells in tumor organoids; type: cell-based, mouse; conditions: 48 h treatment, then co-culture with OT-I T cells
Protocol: To evaluate intra-tumor infiltration of T cells, EO771 (Luc+OVA+) tumor organoids were treated with indicated drugs for 48 h, and then co-cultured with OT-I T cells. After co-culture for 48 h, the organoids with T cells inside or attached were dissociated by TrypLE Express (Thermo Fisher) into single cells and stained with APC/Cy7-conjugated anti-mouse CD8 (Biolegend) and SYTOX Blue reagent for 15 min. The CD8+ T cell proportions from tumor organoids were analyzed by flow cytometry.

## COc1ccccc1S(=O)(=O)Nc1ccc2c(c1)CN(C)C(=O)N2 [PFI-1]
EO771 tumors
  anti-tumor effect in animal experiments: no anti-tumor effect
[1]
  CD8+ T cell infiltration in the tumor organoids: poor T cell infiltration
